Like-named read-outs stand apart in the source and are kept apart here. Ends that are not written are not given here.
Tests used:
GPR54 = GPR54 (Homo sapiens, UniProt Q969F8); details: Lee et al 1999; Ohtaki et al 2001; cited from earlier work
melanomas = details: mice with melanomas injected in footpads, administration by perfusion; Ohtaki et al 2001; cited from earlier work
[1] = tested on: B16-L16 melanoma cells transfected with the GPR54 receptor; details: cited from earlier work
oxytocin secretion = details: intravenous injection, female rat; Kotani et al 2001; cited from earlier work
[2] = tested on: FSH secretion from the pituitary; test: Serum FSH assay after administration of exogenous GnRH; type: in vivo, mice
Experimental: (§1) 3) Administration of Exogenous GnRH and Effects on FSH and LH Secretion from the Pituitary
(§2) Method: 25 ng of GnRH peptide was injected 4 times in 30 min intervals and the animals killed to collect blood and pituitary 30 min after last injection. All mice were killed between 11 am-1 pm.
(§3) Animal groups: 6 WT injected with just PBS (control), 6 WT injected with GnRH made in PBS and 6 HP injected with GnRH/PBS. All WT animals were staged and used at dioestrous (end of LH and FSH surge). All mice aged 2-4 months. This was repeated for LH and FSH measurements.
Serum FSH assay: There is a 1.9-fold increase in FSH in serum of WT injected with GnRH compared to those injected with just PBS.

[3] = tested on: LH levels in the pituitary; test: Depletion of LH levels in the pituitary after stimulation by exogenous GnRH; type: in vivo, mice; details: mutants, FIG. 15b
Experimental: as §2, §3
Measurement of the depletion of LH levels in the pituitary after stimulation by exogenous was measured. […] There were no deleterious effects of knocking out the gene in the mutants.

[4] = tested on: LH secretion from the pituitary; test: Serum LH assay after administration of exogenous GnRH; type: in vivo, mice
Experimental: as §1, §2, §3
Serum LH assay: There is a 5-fold increase in LH in serum of WT injected with GnRH compared to those injected with just PBS.

[5] = tested on: ovaries (ovulation of mature oocytes); test: Exogenous gonadotrophins: ovulation in GPR54 mutant females; type: in vivo, mice; details: 1000 iu PMS followed two days later by 1000 iu bHCG, n=6
Text: This is consistent with the hypothesis that GPR54 receptors and ligands are acting at the level of the pituitary hypothalamic axis and not the end-organs.

[6] = HP (GPR54 knockout) mice injected with GnRH against WT injected with just PBS

GPR54, sequence (Q969F8 whole entry, species assumed, the tested form may be a part): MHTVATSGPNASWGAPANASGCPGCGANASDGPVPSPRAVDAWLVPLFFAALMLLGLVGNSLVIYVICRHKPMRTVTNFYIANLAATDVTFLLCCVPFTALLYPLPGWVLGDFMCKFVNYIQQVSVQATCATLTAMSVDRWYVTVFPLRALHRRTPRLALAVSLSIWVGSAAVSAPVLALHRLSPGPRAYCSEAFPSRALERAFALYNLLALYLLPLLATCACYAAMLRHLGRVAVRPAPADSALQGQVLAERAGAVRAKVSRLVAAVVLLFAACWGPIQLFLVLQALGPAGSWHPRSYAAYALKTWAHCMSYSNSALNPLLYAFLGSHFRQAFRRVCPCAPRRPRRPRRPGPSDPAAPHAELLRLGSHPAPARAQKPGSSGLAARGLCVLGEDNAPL

galanin-like peptide: galanin-like peptide reported not to activate GPR54 (APAHRGRGGWTLNSAGYLLGPVLHLPQMGDQDGKRETALEILDLWKAIDGLPYSHPPQPS; Galanin-like peptide; UniProt Q9UBC7 25-84, looked up)
activation of GPR54 (GPR54): neither galanin nor galanin-like peptide activate GPR54

metastin: 54 amino acid kisspeptin, product of the Kiss-1 gene, natural ligand of GPR54 (GTSLSPPPESSGSPQQPGLSAPHSRQIPAPQGAVLVQREKDLPNYNWNSFGLRF; ends and bridges not checked; UniProt Q15726 68-121, looked up)
metastases (melanomas): significantly decreased metastases
cell motility ([1]; B16-L16 melanoma cells transfected with the GPR54 receptor): inhibits motility
cell motility ([1]; mock-transfected B16-L16 melanoma cells): not in mock-transfected cells

kisspeptin-10: kisspeptin peptide injected intravenously in female rat (YNWNSFGLRF; ends and bridges not checked; UniProt Q15726 112-121, looked up)
oxytocin secretion (oxytocin secretion): stimulates oxytocin secretion

GnRH: gonadotropin-releasing hormone peptide injected in PBS (QHWSYGLRPG; ends and bridges not checked; UniProt P01148 24-33, looked up)
increase in FSH in serum [2, 6]: 1.7 fold
increase in FSH in serum ([2]; WT mice injected with GnRH (25 ng x 4 at 30 min intervals) compared to WT injected with just PBS): 1.9 fold
LH levels in the pituitary after stimulation [3]: corresponding depletion of LH levels in the pituitary
increase in LH in serum [4, 6]: 5 fold
increase in LH in serum ([4]; WT mice injected with GnRH compared to WT injected with just PBS): 5 fold

B1: bHCG: beta human chorionic gonadotrophins (protein, UniProt P0DN86 21-165, looked up)
Choriogonadotropin subunit …: SKEPLRPRCRPINATLAVEKEGCPVCITVNTTICAGYCPTMTRVLQGVLPALPQVVCNYRDVRFESIRLPGCPRGVNPVVSYAVALSCQCALCRRSTTDCGGPKDHPLTCDDPRFQDSSSSKAPPPSLPSPSRLPGPSDTPILPQ
mutant females with ovulation of mature oocytes [5]: 50%
